From US20240277829A1, “HIV-1 VACCINATION AND SAMT-247 MICROBICIDE TO PREVENT HIV-1 INFECTION” (priority 2021, published 2024)

Tested on: NKG2A^+ cells
Assay: Zinc chelation: macaque blood NK cells, SAMT-247 and/or gp120 peptides with or without TPEN
Type: cell-based
Conditions: presence or absence of gp120 peptide
Protocol: Zinc chelation: The frequencies and cytokine levels of NK cells, monocytes and T cells were measured in macaque blood. Cryopreserved PBMCs were thawed and cultured in R10 in the presence/or absence of SAMT-247 and/or gp120 peptides for 12 hours. Cells were incubated with or without Zinc chelator TPEN (cat. #P4413-100 MG, 5 μM) for 12 h. Subsequently, cells were stained for live cells with Live/Dead Blue dye (cat. #L34962, 0.5 μl) from Thermofisher; followed by surface staining with the following: Alexa 700 anti-CD3 (SP34-2; cat. #557917, 5 μl), BV711 anti-CD4 (L200; cat. #563913, 5 μl), BB700 anti-CD8 (RPA-T8; cat. #566452, 5 μl), BUV737 anti-CD20 (2H7; cat. #612848, 5 μl), PE anti-CD45 (D058-1283; cat. #552833, 5 μl), BV786 anti-CCR5 (3A9; cat. #565001, 5 μl), BV496 anti-CD16 (3G8; cat. #612944, 5 μl), BUV661 anti-HLA-DR (G46-6; cat. #612980, 5 μl), BUV805 anti-CD14 (M5E2; cat. #565779, 5 μl) from BD Biosciences; APC-H7 anti-CD11b (ICRF44; cat. #47-0118-42, 5 μl), PE-Cy5 anti-CD95 (ICRF44; cat. #15-0959-42, 5 μl) from eBioscience; APC anti-α4β7, provided by the NIH Nonhuman Primate Reagent Resource (R24 OD010976, and NIAID contract HHSN272201300031C); BV605 anti-CCR6 (G034E3; cat. #353420, 5 μl), BV650 anti-CXCR3 (G025H7; cat. #353730, 5 μl), from Biolegend and PE-Cy7 anti-NKG2A (Z199; cat. #B10246, 5 μl) from Beckman coulter for 30 minutes at room temperature. This was followed by permeabilization with a FOX3-transcription buffer set (cat. #00-5523-00) from eBioscience according to the manufacture's recommendation and subsequently intracellular staining with the following: BV750 anti-TNF-α (MAB11; cat. #566359, 5 μl), BUV395 anti-IFN-γ (B27; cat. #563563, 5 μl), BV510 anti-GranB (GB11; cat. #563388, 5 μl), BV421 anti-IL-10 (JES3-9D7; cat. #564053, 5 μl), PE-CF594 anti-Ki67 (B56; cat. #567120, 5 μl) from BD Biosciences and FITC anti-Perforin (pf-344; cat. #3465-7, 5 μl) from MABTECH for 30 minutes at room temperature. Flow cytometry acquisitions were performed on a FACSYMPHONY™ A5 and examined using FACSDIVA™ software (BD Biosciences).

## CC(=O)Sc1ccccc1C(=O)NCCC(N)=O [SAMT-247]
  frequency of NKG2A^+ cells: increased
